Columns and labels:
[1] = target: T1, ALR-2 (human aldose reductase, EC 1.1.1.21) (Homo sapiens, UniProt P15121); experiment: ITC direct titration; X-ray; format: binding
T1 construct: gene AKR1B1; one molecule per asymmetric unit
From the text: ITC direct titration; X-ray on ALR-2 (human aldose reductase, EC 1.1.1.21)

[2] = target: T1, ALR-2 (human aldose reductase, EC 1.1.1.21); experiment: ITC direct titration; format: binding
From the text: ITC direct titration on ALR-2 (human aldose reductase, EC 1.1.1.21)

| Compound | Kd [1] [nM] | Kd [2] [nM] |
| --- | --- | --- |
| C[S+]([O-])c1cccc(CNC(=O)c2ccc(F)cc2OCC(=O)O)c1 (stereo not drawn) [compound 3, 2-(5-fluoro-2-((3-(methylsulfinyl)benzyl)carbamoyl)phenoxy)acetic acid] | 5000 ± 600 |  |
| O=C(O)COc1cc(F)ccc1C(=O)NCc1cccc(B(O)O)c1 [compound 4, 2-(2-((3-boronobenzyl)carbamoyl)-5-fluorophenoxy) acetic acid] | 2300 ± 300 |  |
| O=C(O)COc1cc(F)ccc1C(=O)NCc1nc2ccccc2s1 [compound 9, inhibitor 9] |  | 420 ± 80 |

From publication PMC8699021, “Which Properties Allow Ligands to Open and Bind to the Transient Binding Pocket of Human Aldose Reductase?” (Biomolecules, 2021)
